Experimental data from US11058654B2, “Compositions and methods for the treatment of hemoglobinopathies and thalassemias” (AXCELLA HEALTH INC., priority 2018, dated 2021).

Legend:
[1] = tested on: IL-6; assay: LPS-induced IL-6 secretion in primary human PBMC-derived macrophages (ELISA); format: cell-based; conditions: for effect on LPS-induced IL-6 secretion: in words
Procedure: Unpurified buffy coats (Research Blood Components) were carefully poured into 50 mL centrifuge tubes and diluted with room temperature Dulbecco's Phosphate Buffered Saline (dPBS) with Calcium and Magnesium (Gibco). Diluted buffy coats were further divided into four total 50 mL centrifuge tubes at 20 mL per tube. Lymphocyte Separation Medium (Corning) was carefully pipetted to the bottom of each centrifuge tube. Mixtures were centrifuged at 850× g for 32 minutes at 20° C. with 0 deceleration and acceleration.
The PBMC layer was separated from other components after centrifugation and added to new 50 mL centrifuge tube containing 25 mL dPBS. Total volume was brought up to 50 mL with dPBS and centrifuged at 600× g for 10 minutes at 20° C. with acceleration of 9, deceleration of 5. Supernatant was carefully removed from cell pellets. The cell pellets were resuspended using 10 mL dPBS. Total volume was then brought up to 50 mL using dPBS and centrifuged at 450× g for 5 min at 20° C. with acceleration of 9, deceleration of 9. The supernatant removal and cell pellet resuspension was repeated again.
The supernatant was then carefully removed from cell pellets. Cell pellets were resuspended in 10 mL dPBS without calcium or magnesium and filtered through a 70 uM cell strainer. The total PBMC number was determined using a Cellometer K2 automated cell counter. A total of 5E6 cells were saved for flow cytometric analysis. Remaining cells were centrifuged at 490× g for 5 minutes at 20° C. with acceleration of 9, deceleration of 9.
CD14+ cells were selected using EasySep™ Human CD14 Positive Selection Kit II ([…] Technologies). Cells were resuspended in cold EasySep™ Buffer ([…] Technologies) at 1×10^8 cells/mL. A total of 100 uL/mL EasySep™ Human CD14 Positive Selection Cocktail II was added to the cell suspension, mixed, and incubated at room temperature for 10 minutes. A total of 100 uL/mL RapidSpheres were added to the mixture and incubated at room temperature for 3 minutes after mixing, then RoboSep buffer was added to bring up the total volume to 10 mL. The mixture in a 15 mL tube was placed in magnet and incubated at room temperature for 3 minutes. Supernatant was discarded and 10 mL fresh EasySep™ buffer was added to 15 mL tube. The addition of RoboSep buffer, mixing, and discarding of supernatant was repeated two more times.
Negative and positive fractions were centrifuged at 490× g for 5 minutes at 20° C. with acceleration of 9, deceleration of 9, and resuspended in DMEM (Gibco) and 10% Heat Inactivated Fetal Bovine Serum (Atlanta Bio) and Penicillin/Streptomycin. Cells were counted and centrifuged again at […] for 5 minutes at 20° C. with acceleration of 9, deceleration of 9. After centrifugation, cell were resuspended in DMEM (Gibco) and 10% Heat Inactivated Fetal Bovine Serum (Atlanta Bio) and Penicillin/Streptomycin containing 500 U/mL […] and plated at 1-2×10^6 cells/mL on 10 cm tissue culture plates. Cells were kept in 37° C., 5% CO2 in between feedings/harvest.
Cells were fed every 3-4 days by removing media and unattached cells, centrifuging at 490× g for 5 minutes at 20 C with acceleration of 9, deceleration of 9, and resuspending in fresh DMEM (Gibco) and 10% Heat Inactivated Fetal Bovine Serum (Atlanta Bio) and Penicillin/Streptomycin containing GM-CSF. Resuspended cells were seeded back onto 10 cm tissue culture plates and incubated at 37° C., 5% CO2. Differentiated macrophages were used for subsequent experiments.
Primary human PMBC derived macrophages were seeded on day 0 at 3.0E4 cells per well in 96-well microplates (ThermoFisher) in Dulbecco's Modified Eagle Medium (DMEM) (Gibco) supplemented with penicillin-streptomycin (Hyclone) and 10% heat inactivated fetal bovine serum (HI-FBS) (Atlanta Bio) and incubated overnight at 37° C., 5% CO2. On day 1, cells were washed once with 150 uL per well DPBS (Gibco) and treated with 75 uL of: • a. […]

[2] = Plasma pharmacokinetics after oral gavage in male Sprague-Dawley rats; format: in vivo; set-up: AUC(0-t): concentration or dose not given beside the values; conditions: rat, plasma, Mean, oral gavage of RCitNacQCarLHKVS, male Sprague-Dawley rats; for AUC(0-t): read-out: AUC0-5 h; for Cmax: read-out: Cmax; for Tmax: read-out: Tmax
Procedure: A pharmacokinetic (PK) analysis was performed on plasma concentrations of various combinations of amino acid compounds administered by oral gavage to male Sprague-Dawley rats. Four animals were dosed with RCitNacQCarLHKVS, a test article comprising ten amino acid components: arginine, citrulline, N-acetylcysteine, glutamine, carnitine, leucine, histidine, lysine, valine, and serine (Table 19). Animals were fasted for 2 hours prior to dose administration. Plasma samples were taken immediately pre-dose and 0.5, 1, 2, 3, 4, and 5 hours post-dose.
Bioanalysis of collected plasma samples for amino acid content was performed at Axcella Health using an LC-MS method (Section 2.1). Bioanalytical data were analyzed using noncompartmental analysis with Phoenix® WinNonLin® (v8.1).
An LC/MS method utilizing HILIC chromatography and high-resolution mass spectrometry was used to quantify amino acids in rat plasma. The samples were prepared by protein precipitation and spiked with stable-labeled amino acid internal standard for each analyte. […] QCs, spiked into rat plasma, were utilized to assess the accuracy of the method.
PK parameters of test article components were determined from individual rat plasma concentration-time data by employing a noncompartmental approach using Phoenix WinNonlin® (Version 8.1) software. Nominal times were used to calculate the toxicokinetic parameters. […] This program analyzed data using the standard methods described by Gibaldi and Perrier (see M. Gibaldi and D. Perrier, Pharmacokinetics, 2nd edition, New York: Marcel-Dekker, Inc.; 1982.).

N=C(N)NCCC[C@H](N)C(=O)O [Arginine]
IL-6 Measurements Mean ([1]; Donor 1, Arginine Conc. 109 μM (baseline)): 0 | IL-6 Measurements Mean ([1]; Donor 1, Arginine Conc. 1088 μM, baseline subtracted): −181.36 | IL-6 Measurements Mean ([1]; Donor 1, Arginine Conc. 2720 μM, baseline subtracted): −186.57 | IL-6 Measurements Mean ([1]; Donor 1, Arginine Conc. 5440 μM, baseline subtracted): 357.4394 | effect on LPS-induced IL-6 secretion ([1]; Donor 1): increased | IL-6 Measurements Mean ([1]; Donor 2, Arginine Conc. 109 μM (baseline)): 2.37E−15 | IL-6 Measurements Mean ([1]; Donor 2, Arginine Conc. 1088 μM, baseline subtracted): −9.701 | IL-6 Measurements Mean ([1]; Donor 2, Arginine Conc. 2720 μM, baseline subtracted): −13.6102 | IL-6 Measurements Mean ([1]; Donor 2, Arginine Conc. 5440 μM, baseline subtracted): −12.4164 | IL-6 Measurements Mean ([1]; Donor 3, Arginine Conc. 109 μM (baseline)): 0 | IL-6 Measurements Mean ([1]; Donor 3, Arginine Conc. 1088 μM, baseline subtracted): 31.5786 | IL-6 Measurements Mean ([1]; Donor 3, Arginine Conc. 2720 μM, baseline subtracted): −7.503 | IL-6 Measurements Mean ([1]; Donor 3, Arginine Conc. 5440 μM, baseline subtracted): −6.81 | AUC(0-t) [2]: 2210 µM·h | Cmax [2]: 565 µM | Tmax [2]: 82.8 min

NC(=O)CC[C@H](N)C(=O)O [Glutamine]
effect on LPS-induced IL-6 secretion ([1]; Donor 1): increased | effect on LPS-induced IL-6 secretion ([1]; Donor 2): increased | effect on LPS-induced IL-6 secretion ([1]; Donor 3): significantly increased | AUC(0-t) [2]: 2370 µM·h | Cmax [2]: 605 µM | Tmax [2]: 30 min

CC(=O)N[C@@H](CS)C(=O)O [N-Acetyl Cysteine, N-acetylcysteine]
IL-6 Measurements Mean ([1]; Donor 1, Conc. 0 X (baseline)): 0 | effect on LPS-induced IL-6 secretion ([1]; Donor 1): significantly reduced | IL-6 Measurements Mean ([1]; Donor 2, Conc. 0 X (baseline)): −2.4E−15 | IL-6 Measurements Mean ([1]; Donor 2, Conc. 20 X, baseline subtracted): −24.9999 | effect on LPS-induced IL-6 secretion ([1]; Donor 2): significantly reduced | IL-6 Measurements Mean ([1]; Donor 3, Conc. 0 X (baseline)): −9.5E−15 | effect on LPS-induced IL-6 secretion ([1]; Donor 3): significantly reduced
